From US20260102415A1, “COMPOSITIONS COMPRISING PRODRUGS OF HYDROXAMATE-BASED COMPOUNDS AND METHODS OF MAKING AND USING SAME” (Duke University, priority 2022, published 2026)
Converted amounts (≈) assume the structure as drawn.

Tests used:
[1] = Maximum solubility in 5% Captisol by UV-Vis spectroscopy; format: physicochemical; conditions: aqueous with cosolvent or surfactant or cyclodextrin, thermodynamic from solid, absorption at 290 nm, triplicate, averaged
Description: Maximum solubility of LPC233-phosphate-ProDrug was determined using UV-Vis spectroscopy. First, a sample of LPC-233-Phos-Pro in 5% Captisol was prepared at 1 mg/mL by dissolving 0.7 mg of compound in 700 μL of 5% Captisol and sonicating for 30 minutes. The sample was then serial diluted 2-fold to generate standard solutions ranging from 0.0625-1 mg/mL. The absorption of each sample at 290 nm was determined via nanodrop, and the values were plotted to generate a linear standard curve of y=3.0336x+0.09 with r^2=0.998 (v=Abs290 nm, x=[drug]mg/mL). Next, a sample of LPC-233-Phos-Pro was prepared based on an assumed concentration of 300 mg/mL in 5% Captisol and allowed to sonicate for 45 minutes. The sample was then vortexed and centrifuged to pellet any undissolved compound. The supernatant was removed and diluted an initial 30× to a theoretical max concentration of 10 mg/mL. From here, the solution was serial diluted 2-fold up to 256×. The absorption of each dilution at 290 nm was measured via nanodrop and values were plotted to the standard curve. These preparations and measurements were performed in triplicate and averaged. The final maximum solubility of LPC-233-Phos-Pro in 5% Captisol was determined to be ˜260±6 mg/mL. […]

[2] = tested on: Acinetobacter baumannii (ATCC 19606); experiment: Acinetobacter baumannii sepsis model in mice (survival); format: in vivo; conditions: CD-1 mice; for overall survival: separate experiment comparing prodrug with parent compound; for mice surviving during treatment and post-treatment observation periods: dose response study
Description: A mice model was created to test the efficacy of LPC-233-Phos-Pro in an Acinetobacter baumannii sepsis model.
Method: Overnight culture of A. baumannii 19606 was inoculated into 50 mL fresh LB with 1:100 dilution. The culture was incubated at 37° C. with vigorous shaking until OD600 reached ˜0.5. The bacteria were harvested, washed, and re-suspended in PBS pH 7.4 buffer. Each CD-1 mouse at the age of 6-7 weeks was injected with about […] Acinetobacter baumannii (ATCC 19606) in a volume of 200 μL intraperitoneally. There were ten mice in each group (five male and five female). About 2 hours post infection, 200 μL of vehicle (5% Captisol dissolved in saline), or LPC-233-Phos-Pro in 5% Captisol at specified concentrations were injected intraperitoneally. 12 hours later, 200 μL of vehicle control or LPC-233-Phos-Pro solutions at desired concentrations were administrated via intraperitoneal injections every 12 hours (Q12H) for a total of ten IP injections. The mice were monitored for an additional 10 days and the percentages of survival were recorded. The same procedure was used in a separate experiment to compare the efficacy of LPC-233 and LPC-233-Phos-Pro.

[3] = Vehicle (Captisol or beta-cyclodextrin) concentration needed to formulate the 100 mg/kg dose; format: physicochemical; conditions: dose level 100 mg/kg
Description: LPC-233 required 30-40% Captisol or beta-cyclodextrin to reach the dose level of 100 mg/kg and beyond. These concentrations of vehicle caused vehicle-related side effects and cannot be used in clinical formulations.

[4] = Maximum Tolerated 5-day Repeat dose in male CD-1 mice; format: in vivo; conditions: 250 mg/kg/Q12H (500 mg/kg/day) IP over 5 days, 5% Captisol
Description: Additionally, the Maximum Tolerated 5-day Repeat dose of LPC-233-Phos-Pro was tested in male CD-1 mice (n=3). LPC-233-Phos-Pro was prepared in 5% Captisol and 200 μL of solution was administered via IP injection every 12 hours (Q12H) at doses of 250 mg/kg/Q12H (500 mg/kg/day) over the course of 5 days. The mice were weighed daily to monitor animal survival and weight loss.

Row | Structure (SMILES) | solubility at 45 min [1] [mg/mL] | overall survival ([2]; 100 mg/kg Q12H IP) [%] | Captisol or beta-cyclodextrin concentration required to reach the dose level of 100 mg/kg [3] | mice surviving during treatment and post-treatment observation periods ([2]; 30 mg/kg Q12H IP) [%] | mice surviving during treatment and post-treatment observation periods ([2]; 100 mg/kg Q12H IP) | fitted ED50 (survival) ([2]; IP infection with A. baumannii 19606, IP dosing Q12H, ten injections, in 5% Captisol, dose response study 10, 30, 100 mg/kg) [mg/kg Q12H] | animal survival [4] | weight loss [4]
1 | C[C@@](O)(C(F)F)[C@H](NC(=O)c1ccc(C#CC#CC2CC2)cc1)C(=O)NO [LPC-233, reference compound] | ~20 (≈ 53.1 mM) | 70 | 30-40% | – | – | – | – | –
2 | C[C@@](O)(C(F)F)[C@H](NC(=O)c1ccc(C#CC#CC2CC2)cc1)C(=O)NOP(=O)([O-])[O-].[Na+].[Na+] [LPC-233-Phos-Pro] | ~260 | 100 | 5% | 90 | all mice | 5.5 | All mice survived | < 10 % of initial body weight
